Reference: patent US10000454B2, “Antidiabetic tricyclic compounds” (Merck Sharp & Dohme Corp., priority 2014, dated 2018)

Columns and labels:
[1] = molecular target: T1, Human GPR40 (Homo sapiens, UniProt O14842); experiment: Inositol Phosphate Turnover (IP1) Assay; assay type: cell-based; set-up: expressed in transfected cells; host or cells: HEK cells (stably expressing the aequorin reporter); conditions: HEK cells stably expressing human GPR40, CisBio IP-One kit
Protocol: (§1) Human and mouse GPR40 stable cell-lines were generated in CHO cells stably expressing NFAT BLA (Beta-lactamase). A human GPR40 stable cell-line was generated in HER cells stably expressing the aequorin expressing reporter. The expression plasmids were transfected using lipofectamine (Life Technologies) following manufacturer's instructions. Stable cell-lines were generated following drug selection.
The assay is performed in 384-well format. HEK cells stably expressing human GPR40 are plated at 15,000 cells per well in growth medium (DMEM/10% fetal calf serum). Cell plates are then incubated 16 hours at 37 degrees in a 5% CO2 incubator.
Measurement of Inositol Phosphate Turnover (IP1) is performed using the CisBio IP-One kit (Part number 62IPAPEB). After the 16 hour incubation, the cells are washed with HEPES buffer and 10 ul of stimulation buffer (prepared as described in the kit) is added to each well. In a separate plate, compounds are diluted in DMSO (400-fold over the final concentration in the assay well) and 25 nl is acoustically transferred to the appropriate well in the assay cell plate. The plates are then incubated for 60 minutes at 37 degrees. 10 ul of detection buffer (also prepared as described in the IP-One kit) is added to each well and the plates are incubated for 60 minutes in the dark. The plates are then read in a Perkin Elmer EnVision or equivalent reader able to measure FRET. Fluorescent ratio of emission at 665 and 620 nm is then converted to IP1 concentration by back calculating from an IP1 standard curve prepared at the time of the assay.

[2] = molecular target: T1, Human GPR40; experiment: FLIPR assay, agonist-induced calcium mobilization; assay type: cell-based; set-up: expressed in transfected cells; conditions: GPR40/CHO NFAT BLA cells
Protocol: as §1
FLIPR (Fluorimetric Imaging Plate Reader, Molecular Devices) assays were performed to measure agonist-induced calcium mobilization of the stable clones. For the FLIPR assay, one day before assay, GPR40/CHO NFAT BLA cells were seeded into black-wall-clear-bottom 384-well plates (Costar) at 1.4×10e4 cells/20 μL medium/well. The cells were incubated with 20 μl/well of the assay buffer (HMS, 0.1% BSA, 20 mM HEPES, 2.5 mM probenecid, pH 7.4) containing 8 μM fluo-4, AM, 0.08% pluronic acid at room temperature for 100 minutes. Fluorescence output was measured using FLIPR. Compounds were dissolved in DMSO and diluted to desired concentrations with assay buffer. 13.3 μL/well of compound solution was added.

T1 sequence (O14842 whole entry): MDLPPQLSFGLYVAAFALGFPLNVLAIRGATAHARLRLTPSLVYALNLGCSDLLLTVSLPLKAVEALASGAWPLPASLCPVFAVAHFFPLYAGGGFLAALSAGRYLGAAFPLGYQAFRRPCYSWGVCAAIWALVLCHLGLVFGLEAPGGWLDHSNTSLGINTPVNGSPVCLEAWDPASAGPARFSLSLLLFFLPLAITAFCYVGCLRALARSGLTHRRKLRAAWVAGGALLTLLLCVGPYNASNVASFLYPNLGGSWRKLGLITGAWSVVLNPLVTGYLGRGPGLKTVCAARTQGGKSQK

SMILES	EC50 [1] [nM]	EC50 [2] [nM]
CC1(C)CC(c2ccccc2C(F)(F)F)c2cc(COc3cc4c(cn3)[C@H]3[C@@H](C4)[C@@H]3C(=O)O)c(F)cc21 (single isomer, unassigned) [Example 22]	12.5	11.9
CC1(C)CC(c2ccccc2C(F)(F)F)c2cc(COc3cc4c(cn3)[C@H]3[C@@H](C4)[C@@H]3C(=O)O)c(F)cc21 (single isomer, unassigned) [Example 23]	16.6	19.9
O=C(O)[C@H]1[C@@H]2Cc3cc(OCc4ccc5c(c4)C(c4ccccc4C(F)(F)F)CCC5)ncc3[C@@H]21 (single isomer, unassigned) [Example 42]	9.87	17.6
O=C(O)[C@H]1[C@@H]2Cc3cc(OCc4cc5c(cc4F)C(n4cccn4)CC5c4ccccc4C(F)(F)F)ncc3[C@@H]21 (single isomer, unassigned) [Example 57]	1.78	
O=C(O)[C@H]1[C@@H]2Cc3cc(OCc4cc5c(cc4F)C(n4cccn4)CC5c4ccccc4C(F)(F)F)ncc3[C@@H]21 (single isomer, unassigned) [Example 58]	818	
O=C(O)[C@H]1[C@@H]2Cc3cc(OCc4cc5c(cc4F)CCOC5c4ccccc4C(F)(F)F)ncc3[C@@H]21 (single isomer, unassigned) [Example 60]	10.8	
O=C(O)[C@H]1[C@@H]2Cc3cc(OCc4cccc5c4CCC5c4ccccc4C(F)(F)F)ncc3[C@@H]21 (single isomer, unassigned) [Example 64]	154	
O=C(O)[C@H]1[C@@H]2Cc3cc(OCc4cccc5c4CCC5c4ccccc4C(F)(F)F)ncc3[C@@H]21 (single isomer, unassigned) [Example 65]	124	
O=C(O)[C@H]1[C@@H]2Cc3cc(OCc4cc5c(cc4F)C(F)(F)CC5c4ccccc4C(F)(F)F)ncc3[C@@H]21 (single isomer, unassigned) [Example 69]	8.85	1.51
O=C(O)[C@H]1[C@@H]2Cc3cc(OCc4cc5c(cc4F)C(F)(F)CC5c4ccccc4C(F)(F)F)ncc3[C@@H]21 (single isomer, unassigned) [Example 70]	15.8	5.99
CC1(C)CNC(c2ccccc2C(F)(F)F)c2cc(COc3cc4c(cn3)[C@H]3[C@@H](C4)[C@@H]3C(=O)O)c(F)cc21 (single isomer, unassigned) [Example 72]	5.13	5.25
CC1(C)CC(c2ccccc2C(F)(F)F)c2cc(COc3cc4c(cn3)[C@@]3(C)[C@@H](C4)[C@@H]3C(=O)O)c(F)cc21 (single isomer, unassigned) [Example 75]	157	
O=C(O)[C@H]1[C@@H]2Cc3cc(OCc4ccc5c(c4)C(c4ccccc4C(F)(F)F)CC54CC4)ncc3[C@@H]21 (stereo partly drawn) [Example 1, (5aR,6S,6aS)-3-((3′-(2-(trifluoromethyl)phenyl)-2′,3′-dihydrospiro[cyclopropane-1,1′-inden]-5′-yl)methoxy)-5,5a,6,6a-tetrahydrocyclopropa[4,5]cyclopenta[1,2-c]pyridine-6-carboxylic acid]	11.4	32.6
O=C(O)[C@H]1[C@@H]2Cc3cc(OCc4cc5c(cc4F)CCC5c4ccccc4C(F)(F)F)ncc3[C@@H]21 (stereo partly drawn) [Example 20, (5aR,6S,6aS)-3-((6-fluoro-3-(2-(trifluoromethyl)phenyl)-2,3-dihydro-1H-inden-5-yl)methoxy)-5,5a,6,6a-tetrahydrocyclopropa[4,5]cyclopenta[1,2-c]pyridine-6-carboxylic acid]	10.3	
CC1(C)CC(c2ccccc2C(F)(F)F)c2cc(COc3cc4c(cn3)[C@@H]3[C@@H](C(=O)O)[C@@H]3C4(F)F)c(F)cc21 (stereo partly drawn) [Example 24, (5aR,6R,6aR)-5,5-difluoro-3-((6-fluoro-1,1-dimethyl-3-(2-(trifluoromethyl)phenyl)-2,3-dihydro-1H-inden-5-yl)methoxy)-5,5a,6,6a-tetrahydrocyclopropa[4,5]cyclopenta[1,2-c]pyridine-6-carboxylic acid]	53	
CC1(C)OC(c2ccccc2C(F)(F)F)c2cc(COc3cc4c(cn3)[C@H]3[C@@H](C4)[C@@H]3C(=O)O)c(F)cc21 (stereo partly drawn) [Example 41, (5aR,6S,6aS)-3-((6-fluoro-1,1-dimethyl-3-(2-(trifluoromethyl)phenyl)-1,3-dihydroisobenzofuran-5-yl)methoxy)-5,5a,6,6a-tetrahydrocyclopropa[4,5]cyclopenta[1,2-c]pyridine-6-carboxylic acid]	1.99	
COc1ccc(F)c(C2CC(C)(C)c3cc(F)c(COc4cc5c(cn4)[C@H]4[C@@H](C5)[C@@H]4C(=O)O)cc32)c1 (stereo partly drawn) [Example 45, (5aR,6S,6aS)-3-((6-fluoro-3-(2-fluoro-5-methoxyhenyl)-1,1-dimethyl-2,3-dihydro-1H-inden-5-yl)methoxy)-5,5a,6,6a-tetrahydro-cyclopropa[4,5]cyclopenta [1,2-c]pyridine-6-carboxylic acid]	223	
CC1(C)CCN(c2ccccc2C(F)(F)F)c2c1ccc(COc1cc3c(cn1)[C@H]1[C@@H](C3)[C@@H]1C(=O)O)c2F [Example 52, (5aR,6S,6aS)-3-((8-fluoro-4,4-dimethyl-1-(2-(trifluoromethyl)phenyl)-1,2,3,4-tetrahydroquinolin-7-yl)methoxy)-5,5a,6,6a-tetrahydrocyclopropa[4,5]cyclopenta[1,2-c]pyridine-6-carboxylic acid]	29.7	
COc1ccc(F)c(N2CC(C)(C)c3cc(F)c(COc4cc5c(cn4)[C@H]4[C@@H](C5)[C@@H]4C(=O)O)cc32)c1 [Example 56, (5aR,6S,6aS)-3-((5-fluoro-1-(2-fluoro-5-methoxyphenyl)-3,3-dimethylindolin-6-yl)methoxy)-5,5a,6,6a-tetrahydrocyclopropa[4,5]cyclopenta[1,2-c]pyridine-6-carboxylic acid]	43.8	
O=C(O)[C@H]1[C@@H]2Cc3cc(OCc4cc5c(cc4F)CCOC5c4ccccc4C(F)(F)F)ncc3[C@@H]21 (some centres unmarked) [Example 59]	97.3	
O=C(O)[C@H]1[C@@H]2Cc3cc(OCc4cc5c(-c6ccccc6C(F)(F)F)cn(-c6ccccc6)c5cc4F)ncc3[C@@H]21 [Example 63, (5aR,6S,6aS)-3-((6-fluoro-1-phenyl-3-(2-(trifluoromethyl)phenyl)-1H-indol-5-yl)methoxy)-5,5a,6,6a-tetrahydrocyclopropa[4,5]cyclopenta[1,2-c]pyridine-6-carboxylic acid]	28.2	
CC1(C)CC(C)(C)c2cc(COc3cc4c(cn3)[C@H]3[C@@H](C4)[C@@H]3C(=O)O)c(F)cc21 [Example 76, (5aR,6S,6aS)-3-((6-fluoro-1,1,3,3-tetramethyl-2,3-dihydro-1H-inden-5-yl)methoxy)-5,5a,6,6a-tetrahydrocyclopropa[4,5]cyclopenta[1,2-c]pyridine-6-carboxylic acid]	17.3	
O=C(O)[C@H]1[C@@H]2Cc3cc(OCc4cc5c(cnn5-c5ccccc5C(F)(F)F)cc4F)ncc3[C@@H]21 [Example 77, (5aR,6S,6aS)-3-((5-fluoro-1-(2-(trifluoromethyl)phenyl)-1H-indazol-6-yl)methoxy)-5,5a,6,6a-tetrahydrocyclopropa[4,5]cyclopenta[1,2-c]pyridine-6-carboxylic acid]	7.08	
O=C(O)[C@H]1[C@@H]2Cc3cc(OCc4cc5c(ccn5Cc5ccccc5C(F)(F)F)cc4F)ncc3[C@@H]21 [Example 78, (5aR,6S,6aS)-3-((5-fluoro-1-(2-(trifluoromethyl)benzyl)-1H-indol-6-yl)methoxy)-5,5a,6,6a-tetrahydrocyclopropa[4,5]cyclopenta[12-c]pyridine-6-carboxylic acid]	195	
CN(C)[C@H]1C[C@H](c2ccccc2C(F)(F)F)c2cc(COc3cc4c(cn3)[C@H]3[C@@H](C4)[C@@H]3C(=O)O)c(F)cc21 [Example 79, (5aR,6S,6aS)-3-(((1S,3S)-1-(dimethylamino)-6-fluoro-3-(2-(trifluoromethyl)phenyl)-2,3-dihydro-1H-inden-5-yl)methoxy)-5,5a,6,6a-tetrahydrocyclopropa[4,5]cyclopenta[1,2-c]pyridine-6-carboxylic acid, or (5aR,6S,6aS)-3-(((1R,3R)-1-(dimethylamino)-6-fluoro-3-(2-(trifluoromethyl)phenyl)-2,3-dihydro-1H-inden-5-yl)methoxy)-5,5a,6,6a-tetrahydrocyclopropa[4,5]cyclopenta[1,2-c]pyridine-6-carboxylic acid]	15.4	
